# Reference: patent publication US12180193B2, “Accelerating fibrosarcoma protein degrading compounds and associated methods of use” (Arvinas Operations, Inc., priority 2020, dated 2024)
# Read-outs that look alike come from different tables or passages of the source.
# Assays:
# [1] = biological target: T1, BRAF V600E (Homo sapiens, UniProt P15056, V600E); test: Cellular assay of target protein degradation, T-Rex 293 cells stably transfected with HA-BRAF_V600E (HA immunofluorescence, high content imaging); format: cell-based
# T1 construct: expressed in transfected cells
# T1 sequence (P15056 whole entry V600E): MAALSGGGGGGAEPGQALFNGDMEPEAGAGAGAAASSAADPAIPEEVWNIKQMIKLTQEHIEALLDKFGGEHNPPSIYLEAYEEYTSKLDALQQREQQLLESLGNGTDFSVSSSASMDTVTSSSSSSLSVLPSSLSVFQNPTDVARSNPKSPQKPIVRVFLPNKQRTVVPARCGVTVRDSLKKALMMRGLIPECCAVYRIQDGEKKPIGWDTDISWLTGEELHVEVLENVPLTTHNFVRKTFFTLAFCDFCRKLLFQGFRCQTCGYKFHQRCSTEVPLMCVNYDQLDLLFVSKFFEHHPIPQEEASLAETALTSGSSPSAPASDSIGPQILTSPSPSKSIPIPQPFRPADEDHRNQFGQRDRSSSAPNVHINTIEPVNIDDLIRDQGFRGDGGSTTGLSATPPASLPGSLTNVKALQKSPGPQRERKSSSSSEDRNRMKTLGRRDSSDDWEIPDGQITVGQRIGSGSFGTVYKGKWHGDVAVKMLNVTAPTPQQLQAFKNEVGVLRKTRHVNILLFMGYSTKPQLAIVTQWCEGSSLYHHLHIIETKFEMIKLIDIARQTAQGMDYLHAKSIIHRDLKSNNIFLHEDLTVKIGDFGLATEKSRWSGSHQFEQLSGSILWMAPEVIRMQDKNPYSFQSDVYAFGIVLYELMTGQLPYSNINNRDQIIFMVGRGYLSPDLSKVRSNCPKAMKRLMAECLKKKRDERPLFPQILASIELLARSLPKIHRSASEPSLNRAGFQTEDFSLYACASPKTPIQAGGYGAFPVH
# Method in brief: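 Doxycycline-induced (1 ng/mL) cells were treated 24 h at 37 °C with compound at 1 μM to 0.1 nM final in 0.1% DMSO. After fixation, permeabilization and blocking, anti-HA staining was imaged by high-content reading; DC50 and Dmax (% of control) were derived.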
# [2] = biological target: T2, BRAF G466V (Homo sapiens, UniProt P15056, G466V); test: Cellular assay of target protein degradation, T-Rex 293 cells stably transfected with HA-BRAF G466V (HA immunofluorescence, high content imaging); format: cell-based
# T2 construct: expressed in transfected cells
# T2 sequence (P15056 whole entry G466V): as the sequence (P15056 whole entry V600E) above, with G466V, E600V counted along it
# Method in brief: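 Cells expressing doxycycline-induced (0.75 ng/mL) HA-BRAF G466V were treated with compound at 30 nM to 3 pM in 0.1% DMSO for 24 hours at 37° C. After fixation and permeabilization, HA was immunostained and quantified by high content imaging to derive DC50 and Dmax.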
# [3] = half maximal degradation, T-Rex 293 HA-BRAF V600E; read-out: BRaf V600E DC50
# [4] = maximum degradation observed, T-Rex 293 HA-BRAF V600E
# [5] = half maximal degradation, T-Rex 293 HA-BRAF G466V; read-out: BRaf G466V DC50
# [6] = maximum degradation observed, T-Rex 293 HA-BRAF G466V
SMILES,"DC50 [1, 3]","Dmax [1, 4]","DC50 [2, 5]","Dmax [2, 6]","DC50 ([1]; read-out: BRaf V600E DC50; half maximal degradation, T-Rex 293 HA-BRAF V600E)","DC50 ([2]; read-out: BRaf G466V DC50; half maximal degradation, T-Rex 293 HA-BRAF G466V)"
"O=C1CCC(N2Cc3cc(C4CCN(CC[C@@H]5CCN(c6ccc(-c7cnc8[nH]cc(C(=O)c9c(F)ccc(NS(=O)(=O)N%10CC[C@@H](F)C%10)c9F)c8c7)cc6)C5)CC4)ccc3C2=O)C(=O)N1 (stereo partly drawn) [Compound 216, (3R)-N-[3-(5-{4-[(3R)-3-(2-{4-[2-(2,6-dioxopiperidin-3-yl)-1-oxo-2,3-dihydro-1H-isoindol-5-yl]piperidin-1-yl}ethyl)pyrrolidin-1-yl]phenyl}-1H-pyrrolo [2,3-b]pyridine-3-carbonyl)-2,4-difluorophenyl]-3-fluoropyrrolidine-1-sulfonamide]",0.005 to 0.05 µM,< 35%,0.001 to 0.01 µM,> 70%,–,–
"O=C1CC[C@H](N2Cc3cc(N4CC[C@@H](COc5ccc(-c6cnc7[nH]cc(C(=O)c8c(F)ccc(NS(=O)(=O)N9CC[C@@H](F)C9)c8F)c7c6)cc5)C4)ccc3C2=O)C(=O)N1 [Compound 335, (3R)-N-{3-[5-(4-{[(3R)-1-{2-[(3S)-2,6-dioxopiperidin-3-yl]-1-oxo-2,3-dihydro-1H-isoindol-5-yl}pyrrolidin-3-yl]methoxy}phenyl)-1H-pyrrolo[2,3-b]pyridine-3-carbonyl]-2,4-difluorophenyl}-3-fluoropyrrolidine-1-sulfonamide]",> 0.5 µM,–,> 0.03 µM,–,–,–
"O=C1CC[C@H](N2Cc3cc([C@@H](O)CCN4CC5(C4)CN(c4ccc(-c6cnc7[nH]cc(C(=O)c8c(F)ccc(NS(=O)(=O)N9CC[C@@H](F)C9)c8F)c7c6)cc4)C5)ccc3C2=O)C(=O)N1 [Compound 106, (3R)-N-{3-[5-(4-{6-[(3S)-3-{2-[(3S)-2,6-dioxopiperidin-3-yl]-1-oxo-2,3-dihydro-1H-isoindol-5-yl}-3-hydroxypropyl]-2,6-diazaspiro[3.3]heptan-2-yl}phenyl)-1H-pyrrolo[2,3-b]pyridine-3-carbonyl]-2,4-difluorophenyl}-3-fluoropyrrolidine-1-sulfonamide]",0.005 to 0.05 µM,35 to 70%,0.001 to 0.01 µM,> 70%,–,–
"O=C1CCC(N2Cc3cc(CCCN4CC5(C4)CN(c4ccc(-c6cnc7[nH]cc(C(=O)c8c(F)ccc(NS(=O)(=O)N9CC[C@@H](F)C9)c8F)c7c6)cc4F)C5)ccc3C2=O)C(=O)N1 (stereo partly drawn) [Compound 310, (3R)-N-(3-{5-[4-(6-{3-[2-(2,6-dioxopiperidin-3-yl)-1-oxo-2,3-dihydro-1H-isoindol-5-yl]propyl}-2,6-diazaspiro[3.3]heptan-2-yl)-3-fluorophenyl]-1H-pyrrolo[2,3-b]pyridine-3-carbonyl}-2,4-difluorophenyl)-3-fluoropyrrolidine-1-sulfonamide]",0.005 to 0.05 µM,35 to 70%,0.001 to 0.01 µM,> 70%,–,–
"O=C1CCC(NC(=O)N2CCCc3c(N4CCN(CC5CCN(c6ccc(-c7cnc8[nH]cc(C(=O)c9c(F)ccc(NS(=O)(=O)N%10CC[C@@H](F)C%10)c9F)c8c7)cc6)CC5)CC4)ccnc32)C(=O)N1 (stereo partly drawn) [Compound 370, 5-(4-{[1-(4-{3-[2,6-difluoro-3-({[(3R)-3-fluoropyrrolidin-1-yl]sulfonyl}amino)benzoyl]-1H-pyrrolo[2,3-b]pyridin-5-yl}phenyl)piperidin-4-yl]methyl}piperazin-1-yl)-N-(2,6-dioxopiperidin-3-yl)-1,2,3,4-tetrahydro-1,8-naphthyridine-1-carboxamide]",0.005 to 0.05 µM,35 to 70%,0.001 to 0.01 µM,> 70%,–,–
"O=C1CC[C@H](N2Cc3cc([C@H](O)CCN4CCC(c5ccc(-c6cnc7[nH]cc(C(=O)c8c(F)ccc(NS(=O)(=O)N9CC[C@@H](F)C9)c8F)c7c6)cc5)CC4)ccc3C2=O)C(=O)N1 [Compound 67, (3R)—N-[3-[5-(4-[1-[(3R)-3-[2-[(3S)-2,6-dioxopiperidin-3-yl]-1-oxo-3H-isoindol-5-yl]-3-hydroxypropyl]piperidin-4-yl]phenyl)-1H-pyrrolo[2,3-b]pyridine-3-carbonyl]-2,4-difluorophenyl]-3-fluoropyrrolidine-1-sulfonamide]",0.005 to 0.05 µM,35 to 70%,0.001 to 0.01 µM,> 70%,–,–
"O=C1CCC(N2Cc3cc(C4CCN(C[C@@H]5CCN(c6ccc(-c7cnc8[nH]cc(C(=O)c9c(F)ccc(NS(=O)(=O)N%10CC[C@@H](F)C%10)c9F)c8c7)cc6)C(=O)C5)CC4)ccc3C2=O)C(=O)N1 (stereo partly drawn) [Compound 312, (3R)-N-[3-(5-{4-[(4R)-4-({4-[2-(2,6-dioxopiperidin-3-yl)-1-oxo-2,3-dihydro-1H-isoindol-5-yl]piperidin-1-yl}methyl)-2-oxopiperidin-1-yl]phenyl}-1H-pyrrolo[2,3-b]pyridine-3-carbonyl)-2,4-difluorophenyl]-3-fluoropyrrolidine-1-sulfonamide]",0.05 to 0.5 µM,> 70%,0.001 to 0.01 µM,> 70%,–,–
"O=C1CCC(N2Cc3cc(C4CCN(CC5CCN(c6ccc(-c7cnc8[nH]cc(C(=O)c9c(F)ccc(NS(=O)(=O)N%10CC[C@@H](F)C%10)c9F)c8c7)cc6F)CC5)CC4)ccc3C2=O)C(=O)N1 (stereo partly drawn) [Compound 36, (3R)—N-[3-(5-[4-[4-([4-[2-(2,6-dioxopiperidin-3-yl)-1-oxo-3H-isoindol-5-yl]piperidin-1-yl]methyl)piperidin-1-yl]-3-fluorophenyl]-1H-pyrrolo[2,3-b]pyridine-3-carbonyl)-2,4-difluorophenyl]-3-fluoropyrrolidine-1-sulfonamide]",–,35 to 70%,–,35 to 70%,0.005 to 0.05 µM,< 0.001 µM
"O=C1CCC(N2Cc3cc(N4CCC(CN5CCN(c6ccc(-c7cnc8[nH]cc(C(=O)c9c(F)ccc(NS(=O)(=O)N%10CC[C@@H](F)C%10)c9F)c8c7)cc6)CC(F)(F)C5)CC4)ccc3C2=O)C(=O)N1 (stereo partly drawn) [Compound 315, (3R)-N-{3-(5-{4-[4-({1-[2-(2,6-dioxopiperidin-3-yl)-1-oxo-2,3-dihydro-1H-isoindol-5-yl]piperidin-4-yl}methyl)-6,6-difluoro-1,4-diazepan-1-yl]phenyl}-1H-pyrrolo[2,3-b]pyridine-3-carbonyl)-2,4-difluorophenyl]-3-fluoropyrrolidine-1-sulfonamide]",> 0.5 µM,–,> 0.03 µM,–,–,–

# Now from value to compound, other results behind:
"DC50 [1, 3]","Dmax [1, 4]","DC50 [2, 5]","Dmax [2, 6]",SMILES,"DC50 ([1]; read-out: BRaf V600E DC50; half maximal degradation, T-Rex 293 HA-BRAF V600E)","DC50 ([2]; read-out: BRaf G466V DC50; half maximal degradation, T-Rex 293 HA-BRAF G466V)"
0.005 to 0.05 µM,35 to 70%,< 0.001 µM,> 70%,"COc1cc(-c2cnc3[nH]cc(C(=O)c4c(F)ccc(NS(=O)(=O)N5CC[C@@H](F)C5)c4F)c3c2)ccc1N1CCC(CN2CCC(c3ccc4c(c3)CN([C@H]3CCC(=O)NC3=O)C4=O)CC2)CC1 [Compound 256, (3R)-N-{3-[5-(4-{4-[(4-{2-[(3S)-2,6-dioxopiperidin-3-yl]-1-oxo-2,3-dihydro-1H-isoindol-5-yl}piperidin-1-yl)methyl]piperidin-1-yl}-3-methoxyphenyl)-1H-pyrrolo[2,3-b]pyridine-3-carbonyl]-2,4-difluorophenyl}-3-fluoropyrrolidine-1-sulfonamide]",–,–
0.005 to 0.05 µM,35 to 70%,0.001 to 0.01 µM,> 70%,"CN(CCN1CCN(c2ccc3c(c2)CN(C2CCC(=O)NC2=O)C3=O)CC1)[C@H]1CC[C@H](Oc2ccc(-c3cnc4[nH]cc(C(=O)c5c(F)ccc(NS(=O)(=O)N6CC[C@@H](F)C6)c5F)c4c3)cc2)CC1 (stereo partly drawn) [Compound 145, (3R)-N-{2,4-difluoro-3-[5-(4-{[(1r,4r)-4-[(2-{4-[2-(2,6-dioxopiperidin-3-yl)-1-oxo-2,3-dihydro-1H-isoindol-5-yl]piperazin-1-yl}ethyl)(methyl)amino]cyclohexyl]oxy}phenyl)-1H-pyrrolo[2,3-b]pyridine-3-carbonyl]phenyl}-3-fluoropyrrolidine-1-sulfonamide]",–,–
0.005 to 0.05 µM,35 to 70%,0.001 to 0.01 µM,35 to 70%,"O=C1CCN(c2ccc(C3CCN(CCC4CCN(c5ccc(-c6cnc7[nH]cc(C(=O)c8c(F)ccc(NS(=O)(=O)N9CC[C@@H](F)C9)c8F)c7c6)cc5)CC4)CC3)cc2F)C(=O)N1 [Compound 199, (3R)-N-[3-(5-[4-[4-(2-[4-[4-(2,4-dioxo-1,3-diazinan-1-yl)-3-fluorophenyl]piperidin-1-yl]ethyl)piperidin-1-yl]phenyl]-1H-pyrrolo[2,3-b]pyridine-3-carbonyl)-2,4-difluorophenyl]-3-fluoropyrrolidine-1-sulfonamide]",–,–
0.005 to 0.05 µM,< 35%,0.001 to 0.01 µM,35 to 70%,"O=C1CC[C@@H](NC(=O)c2cc(C3CCN(CC4CCN(c5ccc(-c6cnc7[nH]cc(C(=O)c8c(F)ccc(NS(=O)(=O)N9CC[C@@H](F)C9)c8F)c7c6)cc5)CC4)CC3)ccc2F)C(=O)N1 [Compound 197, 5-(1-{[1-(4-{3-[2,6-difluoro-3-({[(3R)-3-fluoropyrrolidin-1-yl]sulfonyl}amino)benzoyl]-1H-pyrrolo[2,3-b]pyridin-5-yl}phenyl)piperidin-4-yl]methyl}piperidin-4-yl)-N-[(3R)-2,6-dioxopiperidin-3-yl]-2-fluorobenzamide]",–,–
< 0.005 µM,< 35%,0.001 to 0.01 µM,> 70%,"O=C1CCC(N2Cc3cc(N4CCC(CN5CCC6(CCN(c7ccc(-c8cnc9[nH]cc(C(=O)c%10c(F)ccc(NS(=O)(=O)N%11CC[C@@H](F)C%11)c%10F)c9c8)cc7F)CC6)C5)CC4)ccc3C2=O)C(=O)N1 (stereo partly drawn) [Compound 104, (3R)-N-[3-(5-{4-[2-({1-[2-(2,6-dioxopiperidin-3-yl)-1-oxo-2,3-dihydro-1H-isoindol-5-yl]piperidin-4-yl}methyl)-2,8-diazaspiro [4.5]decan-8-yl]-3-fluorophenyl}-1H-pyrrolo [2,3-b]pyridine-3-carbonyl)-2,4-difluorophenyl]-3-fluoropyrrolidine-1-sulfonamide]",–,–
